# From ChEMBL document CHEMBL3259525, “Plasmepsin inhibitory activity and structure-guided optimization of a potent hydroxyethylamine-based antimalarial hit” (ACS Med Chem Lett, 2014)
# How the values were obtained:
# [1] = Inhibition of Plasmodium falciparum plasmepsin-4 using DABCYL-Glu-Arg-Nle-Phe-Leu-Ser-Phe-Pro-EDANS as substrate preincubated for 30 mins by FRET assay
# Plasmepsin I = Plasmepsin I (Plasmodium falciparum, UniProt P39898); experiment: Inhibition of Plasmodium falciparum plasmepsin-1 using DABCYL-Glu-Arg-Nle-Phe-Leu-Ser-Phe-Pro-EDANS as substrate preincubated for 30 mins by FRET assay
# Plasmepsin I, sequence (P39898 whole entry): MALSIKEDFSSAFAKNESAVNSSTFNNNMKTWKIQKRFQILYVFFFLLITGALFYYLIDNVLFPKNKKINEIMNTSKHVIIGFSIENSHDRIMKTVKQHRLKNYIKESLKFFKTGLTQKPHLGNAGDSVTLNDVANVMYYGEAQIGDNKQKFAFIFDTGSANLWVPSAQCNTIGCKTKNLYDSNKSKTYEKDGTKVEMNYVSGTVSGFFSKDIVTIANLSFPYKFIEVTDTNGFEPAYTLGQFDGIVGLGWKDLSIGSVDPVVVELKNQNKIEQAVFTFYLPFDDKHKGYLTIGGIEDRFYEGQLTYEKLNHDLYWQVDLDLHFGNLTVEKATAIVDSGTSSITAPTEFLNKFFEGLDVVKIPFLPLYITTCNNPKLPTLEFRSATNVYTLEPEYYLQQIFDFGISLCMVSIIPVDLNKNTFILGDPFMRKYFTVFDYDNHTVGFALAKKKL
# Cathepsin D = Cathepsin D (Homo sapiens, UniProt P07339); experiment: Inhibition of human cathepsin-D using DABCYL-Glu-Arg-Nle-Phe-Leu-Ser-Phe-Pro-EDANS as substrate preincubated for 30 mins by FRET assay
# Cathepsin D, sequence (P07339 65-162 limits assumed): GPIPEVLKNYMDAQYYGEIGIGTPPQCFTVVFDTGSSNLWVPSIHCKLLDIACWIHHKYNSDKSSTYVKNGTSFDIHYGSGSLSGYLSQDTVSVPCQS
# Cathepsin D, sequence (P07339 169-412 limits assumed): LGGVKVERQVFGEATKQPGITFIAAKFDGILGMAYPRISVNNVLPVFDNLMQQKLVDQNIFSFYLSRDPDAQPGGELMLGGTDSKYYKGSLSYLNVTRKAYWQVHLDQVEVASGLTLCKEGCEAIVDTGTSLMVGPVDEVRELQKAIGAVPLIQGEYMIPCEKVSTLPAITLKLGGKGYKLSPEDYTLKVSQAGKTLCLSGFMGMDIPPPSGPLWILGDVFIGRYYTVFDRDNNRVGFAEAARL
# Plasmepsin II = Plasmepsin II (Plasmodium falciparum, UniProt P46925); experiment: Inhibition of Plasmodium falciparum plasmepsin-2 using DABCYL-Glu-Arg-Nle-Phe-Leu-Ser-Phe-Pro-EDANS as substrate preincubated for 30 mins by FRET assay
# Plasmepsin II, sequence (P46925 whole entry): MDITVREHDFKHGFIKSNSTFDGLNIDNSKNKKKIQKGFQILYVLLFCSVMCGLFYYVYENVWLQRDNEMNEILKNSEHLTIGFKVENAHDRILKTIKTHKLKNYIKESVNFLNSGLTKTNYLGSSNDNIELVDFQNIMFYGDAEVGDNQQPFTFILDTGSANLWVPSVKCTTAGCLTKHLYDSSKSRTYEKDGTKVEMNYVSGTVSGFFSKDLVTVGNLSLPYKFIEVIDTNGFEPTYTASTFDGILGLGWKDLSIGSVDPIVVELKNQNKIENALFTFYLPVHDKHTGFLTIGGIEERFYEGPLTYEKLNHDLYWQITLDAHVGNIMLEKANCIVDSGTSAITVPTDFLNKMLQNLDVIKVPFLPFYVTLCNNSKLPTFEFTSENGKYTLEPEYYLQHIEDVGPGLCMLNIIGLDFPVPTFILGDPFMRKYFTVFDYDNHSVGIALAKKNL
# Plasmodium falciparum [2] = experiment: Antimalarial activity against blood-stage Plasmodium falciparum 3D7 assessed as inhibition of parasite growth after 96 hrs by SYBR Green I assay; type: functional, organism-based; conditions: 3D7, 96 h
# Plasmodium falciparum [3] = experiment: Antimalarial activity against intra erythrocytic Plasmodium falciparum assessed as inhibition of parasite growth; type: functional, organism-based
SMILES,IC50 [1],IC50 (Plasmepsin I),IC50 (Cathepsin D),IC50 (Plasmepsin II),IC50 (Plasmodium falciparum [2]),IC50 (Plasmodium falciparum [3])
CCCN(CCC)C(=O)c1cc(C(=O)N[C@@H](Cc2ccccc2)[C@H](O)CNC(C)(C)c2ccccc2)cc(N2CCCCS2(=O)=O)c1,48 nM,2300 nM,120 nM,320 nM,–,–
CCCN(CCC)C(=O)c1cc(C(=O)N[C@@H](Cc2ccccc2)[C@@H](O)CNC(C)(C)c2ccccc2)cc(N2CCCCS2(=O)=O)c1,720 nM,45000 nM,5800 nM,24000 nM,–,–
CCCN(CCC)C(=O)c1cc(C(=O)N[C@@H](Cc2ccccc2)[C@H](O)CNC(C)(C)c2cccc(OC)c2)cc(N2CCCCC2)c1,24 nM,300 nM,42 nM,70 nM,6 nM,–
CCCN(CCC)C(=O)c1cc(C(=O)N[C@@H](Cc2ccccc2)[C@H](O)CNC(C)(C)c2cccc(O)c2)cc(N2CCCCC2)c1,19 nM,360 nM,40 nM,100 nM,–,–
CCCN(CCC)C(=O)c1cc(C(=O)N[C@@H](Cc2ccccc2)[C@H](O)CNC(C)(C)c2cncc(OC)c2)cc(N2CCCCC2)c1,23 nM,600 nM,68 nM,190 nM,–,–
CCCN(CCC)C(=O)c1cc(C(=O)N[C@@H](Cc2ccccc2)[C@H](O)CNC2(c3cccc(OC)c3)CC2)cc(N2CCCCC2)c1,25 nM,330 nM,100 nM,150 nM,–,–
COc1cccc(C(C)(C)NC[C@@H](O)[C@H](Cc2ccccc2)NC(=O)c2cc(C(=O)N3CCCC3)cc(N3CCCCC3)c2)c1,110 nM,1600 nM,38 nM,500 nM,–,–
CCCN(CCC)C(=O)c1cc(C(=O)N[C@@H](Cc2ccccc2)[C@H](O)CNC(C)(C)c2cccc(OC)c2)cc(C2CCCCC2)c1,25 nM,200 nM,19 nM,36 nM,–,–
CCCN(CCC)C(=O)c1cc(C(=O)N[C@@H](Cc2ccccc2)[C@H](O)CNC(C)(C)c2cccc(OC)c2)cc(N2CCCCS2(=O)=O)c1,29 nM,700 nM,43 nM,150 nM,2 nM,30 nM

# Continued, in another order:
IC50 [1],IC50 (Plasmepsin I),IC50 (Cathepsin D),IC50 (Plasmepsin II),SMILES,IC50 (Plasmodium falciparum [2]),IC50 (Plasmodium falciparum [3])
38 nM,750 nM,110 nM,500 nM,CCCNC(=O)c1cc(C(=O)N[C@@H](Cc2ccccc2)[C@H](O)CNC(C)(C)c2cccc(OC)c2)cc(N2CCCCC2)c1,–,–
470 nM,18000 nM,4400 nM,14000 nM,CCCN(CCC)C(=O)c1cc(C(=O)N[C@@H](Cc2ccccc2)[C@@H](O)CNC(C)(C)c2cccc(OC)c2)cc(N2CCCCS2(=O)=O)c1,200 nM,–
23 nM,380 nM,51 nM,110 nM,CCCN(CCC)C(=O)c1cc(C(=O)N[C@@H](Cc2ccccc2)[C@H](O)CNC(C)(C)c2ccccc2)cc(N2CCCCC2)c1,–,–
250 nM,4100 nM,350 nM,800 nM,CCCN(CCC)C(=O)c1cc(C(=O)N[C@@H](Cc2ccccc2)[C@H](O)CNC(C)(C)c2ccccn2)cc(N2CCCCC2)c1,–,–
64 nM,350 nM,140 nM,190 nM,CCCN(CCC)C(=O)c1cc(C(=O)N[C@@H](Cc2ccccc2)[C@H](O)CNC(C)(C)c2cccnc2)cc(N2CCCCC2)c1,–,–
90 nM,470 nM,170 nM,270 nM,CCCN(CCC)C(=O)c1cc(C(=O)N[C@@H](Cc2ccccc2)[C@H](O)CNC(C)(C)c2ccncc2)cc(N2CCCCC2)c1,–,–
180 nM,6100 nM,200 nM,600 nM,CCCN(CCC)C(=O)c1cc(C(=O)N[C@@H](Cc2ccccc2)[C@H](O)CNCc2cccc(OC)c2)cc(N2CCCCC2)c1,–,–
170 nM,7600 nM,500 nM,4400 nM,COc1cccc(C(C)(C)NC[C@@H](O)[C@H](Cc2ccccc2)NC(=O)c2cc(C(N)=O)cc(N3CCCCC3)c2)c1,–,–
7 nM,430 nM,32 nM,120 nM,CCCN(CCC)C(=O)c1cc(C(=O)N[C@@H](Cc2ccccc2)[C@H](O)CNC(C)(C)c2cccc(OC)c2)cc(N2CCCC2)c1,4 nM,–
6 nM,250 nM,54 nM,72 nM,CCCN(CCC)C(=O)c1cc(C(=O)N[C@@H](Cc2ccccc2)[C@H](O)CNC(C)(C)c2cccc(OC)c2)cc(-c2ccccc2)c1,2 nM,–
200 nM,18000 nM,360 nM,2700 nM,CCCN(CCC)C(=O)c1cc(C(=O)N[C@@H](Cc2ccccc2)[C@H](O)CNCc2cccc(OC)c2)cc(N2CCCCS2(=O)=O)c1,–,–
